Patent US20050282818A1, “Ubiquitin ligase inhibitors” (Rigel Pharmaceuticals, Inc., priority 2004, published 2005)

How the values were obtained:
Type in all cases: cell-based
U2OS cells = assay: Cell proliferation PAD assay, U2OS; conditions: Homo sapiens, 6pt, 48 hours
Text: (§1) Table 3 illustrates the inhibitory activity of the compounds of the invention determined by the PAD assay described above in a number of cell types. Apoptosis was not
Cell lines used are available from American Type Culture Collection (ATCC), for example, cell cultures containing A549 (ATCC# CCL-185), HeLa (ATCC# CCL-2), HCT116 ATTC# CCL-247), and H1299 (ATCC# CRL-5803) cells were maintained in T175 flasks following the ATCC recommended media and handling procedures. […] A 20,000 cells/ml solution was made for plating. Cells were plated in black Packard 96 well plates by placing 100 μl per well (2,000 cells per well). […] The definitions of the cell types used are as follows: A549 is lung carcinoma; HI 299 is non-small cell lung carcinoma; HI 155 is non-small cell lung carcinoma; AsPC-1 is pancreatic adenocarcinoma; Caov-3 is ovarian adenocarcinoma; COLO 205 is colorectal adenocarcinoma; DLD-1 colorectal adenocarcinoma; HCT116 is colorectal carcinoma; DU 145 is prostate carcinoma; ES-2 is ovarian clear cell carcinoma; H460 is large cell lung carcinoma; HELA is cervical adenocarcinoma; MIA PaCa-2 is pancreatice carcinoma; OVCAR-3 is ovarian adenocarcinoma; OVCAR8 is ovarian carcinoma; PC3 is prostate adenocarcinoma; SK-OV-3 is ovarian adenocarcinoma; SU86.86 is pancreatic carcinoma; TOV-21G is avarian clear cell carcinoma; U2OS is bone osteosarcoma; is ASPC-I is pancreatic adenocarcinoma; BXPC-3 is pabcreatic adenocarcinoma; HL60 is promyeloblast promyelocytic leukemia; K562 is bone marrow chronic myelogenous leukemia; L1210 is mouse lymphocytic leukemia; MOLT3 is T lymphoblast acute lymphoblastic leukemia; MOLT4 is T lymphoblast acute lymphoblastic leukemia; SW620 is colorectal adenocarcinoma; THP-1 is monocyte acute monocytic leukemia; U937 is histiocytic lymphoma; and UACC-257 is melanoma.
Compounds and additional media were added 24 hours after cell plating. A compound master plate was created with concentrations 500 times greater than the final concentration added to the cells. All compound testing was done in duplicate using 6.3 fold dilutions starting with 10 mM. All outside wells (and 4 internal wells) were DMSO controls. Taxol and at least one additional control were run on all plates. Three microliters of the compound master plate were added to deep well blocks containing 750 μl of RPMI media. One hundred microliters were transferred from the compound/media deep well blocks to the plated cells resulting in a 500 fold dilution of the compounds. Cells were grown at 37° C., 5% CO2 for 48 hours.
Cells to be analyzed by photography were fixed and stained. One hundred microliters of media were removed and 100 μl of 9.3% formamide was added to each well. Plates were left on the benchtop for 45 minutes. A staining solution containing 1.55 μl of 1 mg/ml DAPI added to 18.75 ml PBS was warmed for 15 minutes at 37° C. The cells were aspirated prior to washing with 100 μl of PBS. Seventy microliters of PBS were aspirated and 170 μl of the DAPI solution were added to each well of fixed cells. Plates were left at room temperature for one hour then aspirated and washed twice with 100 μl of PBS. The stained cells were left at 4° C. for a minimum of 16 hours before photographic analysis with Array Scan II (Cellomics). Analysis of the photographic images to determine numbers of live cells (proliferation), apoptotic cells and dead cells, were according to the methods described in U.S. Utility patent application Ser. No. 10/652,440, which incorporated herein in its entirety.

MIA PaCa-2 cells = assay: Cell proliferation PAD assay, MIA PaCa-2; conditions: Homo sapiens, Miapaca2 cells, 9pt, 48 hours
Text: as §1
(§2) Cell lines used are available from American Type Culture Collection (ATCC), for example, cell cultures containing A549 (ATCC# CCL-185), HeLa (ATCC# CCL-2), HCT116 ATTC# CCL-247), and H1299 (ATCC# CRL-5803) cells were maintained in T175 flasks following the ATCC recommended media and handling procedures. […] A 20,000 cells/ml solution was made for plating. Cells were plated in black Packard 96 well plates by placing 100 μl per well (2,000 cells per well). […]
(§3) Cells to be analyzed by photography were fixed and stained. […]

COLO 205 cells = assay: Cell proliferation PAD assay, COLO 205; conditions: Homo sapiens, Colo205 cells, 9pt, 48 hours
Text: as §1, §2, §3

| Compound | IC50 (U2OS cells) [nM] | IC50 (MIA PaCa-2 cells) [nM] | IC50 (COLO 205 cells) [nM] |
| --- | --- | --- | --- |
| O=[N+]([O-])c1ccc(SCCO)c2nonc12 [compound 150, 2-[(7-nitro-2,1,3-benzoxadiazol-4-yl)thio]ethanol] | < 1000 | – | – |
| COC(=O)c1ccc(NS(=O)(=O)c2ccc(F)c3nonc23)cc1 [compound 167, methyl 4-{[(7-fluoro-2,1,3-benzoxadiazol-4-yl)sulfonyl]amino}benzoate] | < 1000 | – | – |
| O=S(=O)(Oc1ccc(N2CCN(S(=O)(=O)c3ccc(Cl)c4nonc34)CC2)cc1)c1ccc(Cl)c2nonc12 [compound 171, 4-{4-[(7-chloro-2,1,3-benzoxadiazol-4-yl)sulfonyl]piperazin-1-yl}phenyl 7-chloro-2,1,3-benzoxadiazole-4-sulfonate] | < 1000 | – | – |
| COC(=O)c1ccc(NS(=O)(=O)c2c(Cl)ccc3nonc23)cc1 [compound 178, methyl 4-{[(5-chloro-2,1,3-benzoxadiazol-4-yl)sulfonyl]amino}benzoate] | < 1000 | – | – |
| O=S(=O)(c1c(Cl)ccc2nonc12)N1CCN(c2ncc(C(F)(F)F)cc2Cl)CC1 [compound 179, 5-chloro-4-({4-[3-chloro-5-(trifluoromethyl)pyridin-2-yl]piperazin-1-yl}sulfonyl)-2,1,3-benzoxadiazole] | < 1000 | – | – |
| O=c1[nH]c2ccccc2n1C1CCN(S(=O)(=O)c2ccc(Cl)c3nonc23)CC1 [compound 188, 1-{1-[(7-chloro-2,1,3-benzoxadiazol-4-yl)sulfonyl]piperidin-4-yl}-1,3-dihydro-2H-benzimidazol-2-one] | < 1000 | – | – |
| CC(=O)N1CCN(S(=O)(=O)c2c(Cl)ccc3nonc23)CC1 [compound 201, 4-[(4-acetylpiperazin-1-yl)sulfonyl]-5-chloro-2,1,3-benzoxadiazole] | < 1000 | – | – |
| Cc1cccc(N2CCN(S(=O)(=O)c3c(Cl)ccc4nonc34)CC2)n1 [compound 202, 5-chloro-4-{[4-(6-methylpyridin-2-yl)piperazin-1-yl]sulfonyl}-2,1,3-benzoxadiazole] | < 1000 | – | – |
| O=S(=O)(Nc1ccc2cn[nH]c2c1)c1ccc(Cl)c2nonc12 [compound 220, 7-chloro-N-1 H-indazol-6-yl-2,1,3-benzoxadiazole-4-sulfonamide] | 1000 to 20000 | – | – |
| CC1(C)CCN(S(=O)(=O)c2c(Cl)ccc3nonc23)CC1 [compound 245, 5-chloro-4-[(4,4-dimethylpiperidin-1-yl)sulfonyl]-2,1,3-benzoxadiazole] | – | < 1000 | < 1000 |
| Cc1cc(C)cc(-c2ccc([N+](=O)[O-])c3nonc23)c1 [compound 286, 4-(3,5-Dimethylphenyl)-7-nitro-2,1,3-benzoxadiazole] | < 1000 | – | – |
